Experimental data published in ChEMBL document CHEMBL4507295 (2021).

Experiments:
[1] = molecular target: Death-associated protein kinase 3 (Homo sapiens) (UniProt O43293); conditions: Compound concentration 1000.0 nM
[2] = molecular target: Serine/threonine-protein kinase PLK1 (Homo sapiens) (UniProt P53350); conditions: Compound concentration 1000.0 nM
[3] = molecular target: Mitogen-activated protein kinase kinase kinase kinase 3 (Homo sapiens) (UniProt Q8IVH8); conditions: Compound concentration 1000.0 nM
[4] = system: Tyrosine-protein kinase ABL1 (Homo sapiens), P00519 [T315I]; conditions: Compound concentration 1000.0 nM
[5] = molecular target: Calcium/calmodulin-dependent protein kinase type II subunit delta (Homo sapiens) (UniProt Q13557); conditions: Compound concentration 1000.0 nM
[6] = molecular target: Serine/threonine-protein kinase Nek7 (Homo sapiens) (UniProt Q8TDX7); conditions: Compound concentration 1000.0 nM
[7] = molecular target: Serine/threonine-protein kinase 35 (Homo sapiens) (UniProt Q8TDR2); conditions: Compound concentration 1000.0 nM
[8] = molecular target: Kappa-type opioid receptor (Homo sapiens) (UniProt P41145); conditions: Compound concentration 10.0 uM
[9] = molecular target: Mitogen-activated protein kinase 12 (Homo sapiens) (UniProt P53778); conditions: Compound concentration 1000.0 nM
[10] = system: Phosphatidylinositol 4,5-bisphosphate 3-kinase catalytic subunit alpha isoform (Homo sapiens), P42336 [H1047Y]; conditions: Compound concentration 1000.0 nM
[11] = system: Epidermal growth factor receptor (Homo sapiens), P00533 [UNDEFINED MUTATION]; conditions: Compound concentration 1000.0 nM
[12] = molecular target: Cyclin-dependent kinase 18 (Homo sapiens) (UniProt Q07002); conditions: Compound concentration 1000.0 nM
[13] = system: Epidermal growth factor receptor (Homo sapiens), P00533 [L861Q]; conditions: Compound concentration 1000.0 nM
[14] = molecular target: Serine/threonine-protein kinase SIK3 (Homo sapiens) (UniProt Q9Y2K2); conditions: Compound concentration 1000.0 nM
[15] = system: Proto-oncogene tyrosine-protein kinase receptor Ret (Homo sapiens), P07949 [V804L]; conditions: Compound concentration 1000.0 nM
[16] = molecular target: Serine/threonine-protein kinase PknB (Mycobacterium tuberculosis) (UniProt P9WI81); conditions: Compound concentration 1000.0 nM
[17] = molecular target: Serine/threonine-protein kinase 36 (Homo sapiens) (UniProt Q9NRP7); conditions: Compound concentration 1000.0 nM
[18] = molecular target: Serine/threonine-protein kinase MRCK gamma (Homo sapiens) (UniProt Q6DT37); conditions: Compound concentration 1000.0 nM
[19] = molecular target: Cyclin-dependent kinase 2 homolog (Plasmodium falciparum (isolate 3D7)) (UniProt P61075); conditions: Compound concentration 1000.0 nM
[20] = molecular target: Phosphatidylinositol 5-phosphate 4-kinase type-2 beta (Homo sapiens) (UniProt P78356); conditions: Compound concentration 1000.0 nM
[21] = system: Phosphatidylinositol 4,5-bisphosphate 3-kinase catalytic subunit alpha isoform (Homo sapiens), P42336 [I800L]; conditions: Compound concentration 1000.0 nM
[22] = molecular target: Rho-associated protein kinase 2 (Homo sapiens) (UniProt O75116); conditions: Compound concentration 1000.0 nM
[23] = molecular target: Platelet-derived growth factor receptor beta (Homo sapiens) (UniProt P09619); conditions: Compound concentration 1000.0 nM
[24] = system: Phosphatidylinositol 4,5-bisphosphate 3-kinase catalytic subunit alpha isoform (Homo sapiens), P42336 [E542K]; conditions: Compound concentration 1000.0 nM
[25] = system: Epidermal growth factor receptor (Homo sapiens), P00533 [L858R]; conditions: Compound concentration 1000.0 nM
[26] = system: Epidermal growth factor receptor (Homo sapiens), P00533 [UNDEFINED MUTATION]; conditions: Compound concentration 1000.0 nM; remark: listed apart in the source
[27] = molecular target: Casein kinase II subunit alpha' (Homo sapiens) (UniProt P19784); conditions: Compound concentration 1000.0 nM
[28] = molecular target: Transient receptor potential cation channel subfamily M member 6 (Homo sapiens) (UniProt Q9BX84); conditions: Compound concentration 1000.0 nM
[29] = molecular target: Serine/threonine-protein kinase MAK (Homo sapiens) (UniProt P20794); conditions: Compound concentration 1000.0 nM
[30] = molecular target: Serine/threonine-protein kinase Nek4 (Homo sapiens) (UniProt P51957); conditions: Compound concentration 1000.0 nM
[31] = molecular target: Tyrosine-protein kinase receptor TYRO3 (Homo sapiens) (UniProt Q06418); conditions: Compound concentration 1000.0 nM
[32] = molecular target: Serine/threonine-protein kinase RIO2 (Homo sapiens) (UniProt Q9BVS4); conditions: Compound concentration 1000.0 nM
[33] = molecular target: Dual specificity mitogen-activated protein kinase kinase 6 (Homo sapiens) (UniProt P52564); conditions: Compound concentration 1000.0 nM
[34] = molecular target: Serine/threonine-protein kinase Nek2 (Homo sapiens) (UniProt P51955); conditions: Compound concentration 1000.0 nM
[35] = system: Receptor-type tyrosine-protein kinase FLT3 (Homo sapiens), P36888 [UNDEFINED MUTATION]; conditions: Compound concentration 1000.0 nM
[36] = molecular target: Homeodomain-interacting protein kinase 1 (Homo sapiens) (UniProt Q86Z02); conditions: Compound concentration 1000.0 nM
[37] = molecular target: Casein kinase I isoform gamma-3 (Homo sapiens) (UniProt Q9Y6M4); conditions: Compound concentration 1000.0 nM
[38] = molecular target: Serine/threonine-protein kinase 32A (Homo sapiens) (UniProt Q8WU08); conditions: Compound concentration 1000.0 nM
[39] = system: Receptor-type tyrosine-protein kinase FLT3 (Homo sapiens), P36888 [N841I]; conditions: Compound concentration 1000.0 nM
[40] = molecular target: Casein kinase I isoform delta (Homo sapiens) (UniProt P48730); conditions: Compound concentration 1000.0 nM
[41] = system: Tyrosine-protein kinase ABL1 (Homo sapiens), P00519 [M351T]; conditions: Compound concentration 1000.0 nM
[42] = molecular target: Sigma non-opioid intracellular receptor 1 (Homo sapiens) (UniProt Q99720); conditions: Compound concentration 10.0 uM
[43] = molecular target: Tyrosine-protein kinase ABL1 (Homo sapiens) (UniProt P00519); conditions: Compound concentration 1000.0 nM
[44] = molecular target: Serine/threonine-protein kinase WNK3 (Homo sapiens) (UniProt Q9BYP7); conditions: Compound concentration 1000.0 nM

Chain of Mitogen-activated protein kinase 12 (Homo sapiens) (P53778 whole entry, canonical isoform): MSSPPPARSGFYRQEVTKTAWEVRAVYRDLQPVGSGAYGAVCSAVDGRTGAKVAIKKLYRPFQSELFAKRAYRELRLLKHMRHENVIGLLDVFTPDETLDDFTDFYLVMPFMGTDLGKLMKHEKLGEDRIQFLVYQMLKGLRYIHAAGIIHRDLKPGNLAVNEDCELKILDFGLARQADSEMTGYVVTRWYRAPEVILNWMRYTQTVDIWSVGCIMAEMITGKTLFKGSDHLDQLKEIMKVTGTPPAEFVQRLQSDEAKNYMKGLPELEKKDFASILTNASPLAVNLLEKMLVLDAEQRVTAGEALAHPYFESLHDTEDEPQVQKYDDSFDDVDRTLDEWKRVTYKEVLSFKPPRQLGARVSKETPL
Chain of Serine/threonine-protein kinase RIO2 (Homo sapiens) (Q9BVS4 whole entry, looked up): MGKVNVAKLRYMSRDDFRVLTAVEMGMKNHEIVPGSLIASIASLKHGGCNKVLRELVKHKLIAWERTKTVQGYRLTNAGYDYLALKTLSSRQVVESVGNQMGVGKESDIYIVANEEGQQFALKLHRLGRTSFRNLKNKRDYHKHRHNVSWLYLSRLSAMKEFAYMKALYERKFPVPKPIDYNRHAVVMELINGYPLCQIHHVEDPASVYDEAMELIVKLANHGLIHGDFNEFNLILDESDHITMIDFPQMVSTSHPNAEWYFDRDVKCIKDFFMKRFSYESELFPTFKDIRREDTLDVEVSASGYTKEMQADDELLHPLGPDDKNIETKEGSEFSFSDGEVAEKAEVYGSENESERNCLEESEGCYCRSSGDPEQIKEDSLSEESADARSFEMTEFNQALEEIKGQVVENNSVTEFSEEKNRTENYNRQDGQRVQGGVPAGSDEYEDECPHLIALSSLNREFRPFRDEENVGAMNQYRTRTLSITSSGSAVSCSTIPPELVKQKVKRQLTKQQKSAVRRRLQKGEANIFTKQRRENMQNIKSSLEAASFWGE
Chain of Cyclin-dependent kinase 2 homolog (Plasmodium falciparum (isolate 3D7)) (P61075 whole entry): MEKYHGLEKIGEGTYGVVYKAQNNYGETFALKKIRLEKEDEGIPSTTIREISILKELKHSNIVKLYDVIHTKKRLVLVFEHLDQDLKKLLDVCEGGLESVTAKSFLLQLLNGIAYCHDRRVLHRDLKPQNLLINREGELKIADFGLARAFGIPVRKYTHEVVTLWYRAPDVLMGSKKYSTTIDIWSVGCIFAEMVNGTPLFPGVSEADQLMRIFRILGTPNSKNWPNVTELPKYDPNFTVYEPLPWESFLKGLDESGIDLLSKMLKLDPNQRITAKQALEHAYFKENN
Chain of Serine/threonine-protein kinase Nek7 (Homo sapiens) (Q8TDX7 whole entry, looked up): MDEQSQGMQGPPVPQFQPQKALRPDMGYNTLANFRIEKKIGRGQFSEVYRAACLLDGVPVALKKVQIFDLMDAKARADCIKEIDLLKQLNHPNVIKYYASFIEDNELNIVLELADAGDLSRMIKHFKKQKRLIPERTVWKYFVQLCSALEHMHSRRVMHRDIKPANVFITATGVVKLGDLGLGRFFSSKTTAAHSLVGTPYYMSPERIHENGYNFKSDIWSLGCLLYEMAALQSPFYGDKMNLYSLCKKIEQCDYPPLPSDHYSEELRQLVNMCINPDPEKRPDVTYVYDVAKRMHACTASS
Chain of Rho-associated protein kinase 2 (Homo sapiens) (O75116 whole entry, looked up): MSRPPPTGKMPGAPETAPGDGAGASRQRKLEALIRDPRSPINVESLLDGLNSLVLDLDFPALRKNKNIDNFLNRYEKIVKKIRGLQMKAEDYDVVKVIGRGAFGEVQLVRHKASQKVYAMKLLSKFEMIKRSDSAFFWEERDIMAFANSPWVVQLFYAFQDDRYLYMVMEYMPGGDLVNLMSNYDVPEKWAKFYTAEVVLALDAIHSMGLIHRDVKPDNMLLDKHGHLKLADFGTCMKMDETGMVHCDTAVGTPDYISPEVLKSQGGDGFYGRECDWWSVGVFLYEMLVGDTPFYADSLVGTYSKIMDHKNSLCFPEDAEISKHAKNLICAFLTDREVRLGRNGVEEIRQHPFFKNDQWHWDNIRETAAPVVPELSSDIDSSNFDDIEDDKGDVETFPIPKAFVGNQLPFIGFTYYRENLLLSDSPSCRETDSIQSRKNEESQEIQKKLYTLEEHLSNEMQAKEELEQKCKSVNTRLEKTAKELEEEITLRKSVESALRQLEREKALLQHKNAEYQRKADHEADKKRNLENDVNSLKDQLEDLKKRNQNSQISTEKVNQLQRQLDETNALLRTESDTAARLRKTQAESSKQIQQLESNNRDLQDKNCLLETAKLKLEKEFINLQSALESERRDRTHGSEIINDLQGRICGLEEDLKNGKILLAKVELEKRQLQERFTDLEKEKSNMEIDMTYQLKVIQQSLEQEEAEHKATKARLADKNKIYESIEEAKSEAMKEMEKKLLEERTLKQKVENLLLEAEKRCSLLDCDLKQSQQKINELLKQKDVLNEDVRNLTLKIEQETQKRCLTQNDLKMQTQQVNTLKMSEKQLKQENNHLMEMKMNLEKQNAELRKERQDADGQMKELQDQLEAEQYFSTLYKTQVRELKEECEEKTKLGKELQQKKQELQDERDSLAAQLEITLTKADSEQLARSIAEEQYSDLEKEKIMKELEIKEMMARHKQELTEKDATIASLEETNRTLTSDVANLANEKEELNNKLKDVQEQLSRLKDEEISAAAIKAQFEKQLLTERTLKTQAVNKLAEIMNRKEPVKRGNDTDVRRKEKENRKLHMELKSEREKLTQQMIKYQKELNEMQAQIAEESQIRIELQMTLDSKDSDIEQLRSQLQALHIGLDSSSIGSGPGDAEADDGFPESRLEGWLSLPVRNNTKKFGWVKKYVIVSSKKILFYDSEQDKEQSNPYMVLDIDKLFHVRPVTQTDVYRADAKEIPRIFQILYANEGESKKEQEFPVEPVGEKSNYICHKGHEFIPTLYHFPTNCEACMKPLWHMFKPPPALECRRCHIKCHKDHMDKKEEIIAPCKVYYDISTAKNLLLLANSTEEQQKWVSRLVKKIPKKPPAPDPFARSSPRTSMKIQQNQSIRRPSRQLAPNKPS
Chain of Serine/threonine-protein kinase 32A (Homo sapiens) (Q8WU08 whole entry): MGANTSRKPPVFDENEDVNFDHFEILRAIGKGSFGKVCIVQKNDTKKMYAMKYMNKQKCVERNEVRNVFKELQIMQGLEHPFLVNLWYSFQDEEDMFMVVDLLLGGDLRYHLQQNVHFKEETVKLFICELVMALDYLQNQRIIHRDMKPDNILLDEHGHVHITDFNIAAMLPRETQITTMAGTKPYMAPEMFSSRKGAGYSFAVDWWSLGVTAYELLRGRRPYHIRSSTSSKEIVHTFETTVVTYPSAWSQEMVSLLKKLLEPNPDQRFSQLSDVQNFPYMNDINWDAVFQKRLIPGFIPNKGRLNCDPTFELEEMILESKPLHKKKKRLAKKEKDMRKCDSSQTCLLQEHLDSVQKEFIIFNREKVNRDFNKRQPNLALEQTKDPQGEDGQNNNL
Chain of Platelet-derived growth factor receptor beta (Homo sapiens) (P09619 whole entry, canonical isoform): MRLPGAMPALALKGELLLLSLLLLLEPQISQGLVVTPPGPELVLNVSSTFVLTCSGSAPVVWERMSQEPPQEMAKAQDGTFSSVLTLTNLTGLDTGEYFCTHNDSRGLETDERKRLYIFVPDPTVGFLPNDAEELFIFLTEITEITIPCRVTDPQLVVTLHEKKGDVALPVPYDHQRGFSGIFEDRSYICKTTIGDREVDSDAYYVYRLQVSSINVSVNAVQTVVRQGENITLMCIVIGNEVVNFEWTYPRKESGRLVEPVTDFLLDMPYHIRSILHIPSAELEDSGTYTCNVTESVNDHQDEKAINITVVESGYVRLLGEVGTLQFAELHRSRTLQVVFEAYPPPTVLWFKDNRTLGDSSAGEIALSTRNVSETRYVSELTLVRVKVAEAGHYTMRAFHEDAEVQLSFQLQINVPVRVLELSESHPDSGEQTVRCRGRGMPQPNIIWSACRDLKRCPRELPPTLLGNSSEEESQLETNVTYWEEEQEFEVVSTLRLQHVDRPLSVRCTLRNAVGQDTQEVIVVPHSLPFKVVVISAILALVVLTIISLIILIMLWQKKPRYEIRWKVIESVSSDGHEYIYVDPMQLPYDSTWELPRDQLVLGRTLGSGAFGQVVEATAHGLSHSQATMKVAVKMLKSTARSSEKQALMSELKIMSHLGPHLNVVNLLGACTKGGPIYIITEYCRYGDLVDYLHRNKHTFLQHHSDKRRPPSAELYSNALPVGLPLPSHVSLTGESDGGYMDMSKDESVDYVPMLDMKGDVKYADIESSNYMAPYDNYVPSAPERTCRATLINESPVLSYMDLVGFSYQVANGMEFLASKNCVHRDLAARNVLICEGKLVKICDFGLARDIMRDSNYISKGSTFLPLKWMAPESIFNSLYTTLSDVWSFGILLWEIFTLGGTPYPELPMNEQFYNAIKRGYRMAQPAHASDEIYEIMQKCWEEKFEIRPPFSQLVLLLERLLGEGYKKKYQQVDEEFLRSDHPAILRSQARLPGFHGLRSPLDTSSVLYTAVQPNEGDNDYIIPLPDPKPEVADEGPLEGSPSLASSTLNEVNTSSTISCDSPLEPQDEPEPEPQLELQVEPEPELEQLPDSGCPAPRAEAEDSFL
Chain of Serine/threonine-protein kinase 35 (Homo sapiens) (Q8TDR2 whole entry): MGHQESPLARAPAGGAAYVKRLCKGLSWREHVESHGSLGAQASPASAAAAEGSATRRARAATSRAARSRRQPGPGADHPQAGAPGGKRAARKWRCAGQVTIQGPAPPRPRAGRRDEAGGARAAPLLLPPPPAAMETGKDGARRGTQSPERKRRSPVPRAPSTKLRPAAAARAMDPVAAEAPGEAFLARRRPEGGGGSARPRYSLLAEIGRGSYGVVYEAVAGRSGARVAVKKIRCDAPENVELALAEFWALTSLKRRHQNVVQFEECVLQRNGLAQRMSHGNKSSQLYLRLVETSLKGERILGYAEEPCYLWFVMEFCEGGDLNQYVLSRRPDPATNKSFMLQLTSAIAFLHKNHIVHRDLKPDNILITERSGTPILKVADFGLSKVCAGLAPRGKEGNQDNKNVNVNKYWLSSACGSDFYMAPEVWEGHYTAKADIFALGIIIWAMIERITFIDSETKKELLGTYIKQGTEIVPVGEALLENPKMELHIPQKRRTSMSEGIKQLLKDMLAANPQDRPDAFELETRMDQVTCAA

N#CC1(c2ccccn2)CCN(Cc2cc(C(=O)O)c(=O)n3ccccc23)CC1 [MSD-M1PAM]
inactive: residual activity [1] 95% | residual activity [2] 70% | residual activity [3] 80% | residual activity [4] 80% | residual activity [5] 100% | residual activity [6] 100% | residual activity [7] 94% | inhibition [8] 47.3% | residual activity [9] 78% | residual activity [10] 100% | residual activity [11] 100% | residual activity [12] 100% | residual activity [13] 100% | residual activity [14] 97% | residual activity [15] 100% | residual activity [16] 88% | residual activity [17] 100% | residual activity [18] 100% | residual activity [19] 68% | residual activity [20] 100% | residual activity [21] 90% | residual activity [22] 85% | residual activity [23] 100% | residual activity [24] 87% | residual activity [25] 86% | residual activity [26] 100% | residual activity [27] 86% | residual activity [28] 100% | residual activity [29] 97% | residual activity [30] 100% | residual activity [31] 98% | residual activity [32] 92% | residual activity [33] 99% | residual activity [34] 100% | residual activity [35] 100% | residual activity [36] 100% | residual activity [37] 93% | residual activity [38] 90% | residual activity [39] 97% | residual activity [40] 96% | residual activity [41] 57% | inhibition [42] 29.1% | residual activity [43] 98% | residual activity [44] 99%

N#CC1(c2ccccn2)CCN(Cc2cc(C(=O)N3CCCC3)c(=O)n3ccccc23)CC1
inactive: residual activity [1] 86% | residual activity [2] 100% | residual activity [3] 81% | residual activity [4] 83% | residual activity [5] 97% | residual activity [6] 82% | residual activity [7] 96% | inhibition [8] 46.8% | residual activity [9] 100% | residual activity [10] 64% | residual activity [11] 67% | residual activity [12] 100% | residual activity [13] 79% | residual activity [14] 100% | residual activity [15] 92% | residual activity [16] 92% | residual activity [17] 98% | residual activity [18] 88% | residual activity [19] 100% | residual activity [20] 62% | residual activity [21] 72% | residual activity [22] 72% | residual activity [23] 86% | residual activity [24] 90% | residual activity [25] 87% | residual activity [26] 92% | residual activity [27] 98% | residual activity [28] 80% | residual activity [29] 93% | residual activity [30] 88% | residual activity [31] 78% | residual activity [32] 95% | residual activity [33] 98% | residual activity [34] 95% | residual activity [35] 90% | residual activity [36] 77% | residual activity [37] 76% | residual activity [38] 98% | residual activity [39] 100% | residual activity [40] 74% | residual activity [41] 100% | inhibition [42] 16.3% | residual activity [43] 78% | residual activity [44] 94%
